# Experimental data taken from ChEMBL document CHEMBL2331144, “Synthesis and anticancer activity of analogues of phenstatin, with a phenothiazine A-ring, as a new class of microtubule-targeting agents” (Bioorg Med Chem Lett, 2013).
# Assays:
# Ovis aries = organism: Ovis aries; assay: Inhibition of sheep brain tubulin polymerization at 100 uM using DAPI by fluorimetry
# MDA-MB-468 = assay: Growth inhibition of human MDA-MB-468 cells at 10 uM after 48 hrs by sulforhodamine B assay; format: functional; conditions: MDA-MB-468, 48 h, read-out: GI
# T47D = assay: Growth inhibition of human T47D cells at 10 uM after 48 hrs by sulforhodamine B assay; format: functional; conditions: read-out: GI
# MDA-MB-231 = assay: Growth inhibition of human MDA-MB-231 cells at 10 uM after 48 hrs by sulforhodamine B assay; format: functional; conditions: MDA-MB-231, 48 h, read-out: GI
# MCF7 = assay: Growth inhibition of human MCF7 cells at 10 uM after 48 hrs by sulforhodamine B assay; format: functional; conditions: MCF7, 48 h, read-out: GI
# SNB-75 = assay: Growth inhibition of human SNB75 cells at 10 uM after 48 hrs by sulforhodamine B assay; format: functional; conditions: SNB-75, 48 h, read-out: GI
# SF-295 = assay: Growth inhibition of human SF295 cells at 10 uM after 48 hrs by sulforhodamine B assay; format: functional; conditions: SF-295, 48 h, read-out: GI
# PC-3 = assay: Growth inhibition of human PC3 cells at 10 uM after 48 hrs by sulforhodamine B assay; format: functional; conditions: PC-3, 48 h, read-out: GI
# 786-0 = assay: Growth inhibition of human 786-0 cells at 10 uM after 48 hrs by sulforhodamine B assay; format: functional; conditions: 786-0, 48 h, read-out: GI
# UO-31 = assay: Growth inhibition of human UO31 cells at 10 uM after 48 hrs by sulforhodamine B assay; format: functional; conditions: UO-31, 48 h, read-out: GI
# CAKI-1 = assay: Growth inhibition of human CAKI-1 cells at 10 uM after 48 hrs by sulforhodamine B assay; format: functional; conditions: CAKI-1, 48 h, read-out: GI
# RXF 393 = assay: Growth inhibition of human RXF393 cells at 10 uM after 48 hrs by sulforhodamine B assay; format: functional; conditions: RXF 393, 48 h, read-out: GI
# A498 = assay: Growth inhibition of human A498 cells at 10 uM after 48 hrs by sulforhodamine B assay; format: functional; conditions: A498, 48 h, read-out: GI
# [1] = Growth inhibition of human NCI-ADR-RES cells at 10 uM after 48 hrs by sulforhodamine B assay; format: functional; conditions: read-out: GI
# OVCAR-4 = assay: Growth inhibition of human OVCAR4 cells at 10 uM after 48 hrs by sulforhodamine B assay; format: functional; conditions: OVCAR-4, 48 h, read-out: GI
# SK-MEL-5 = assay: Growth inhibition of human SK-MEL-5 cells at 10 uM after 48 hrs by sulforhodamine B assay; format: functional; conditions: SK-MEL-5, 48 h, read-out: GI
# Malme-3M = assay: Growth inhibition of human MALME-3M cells at 10 uM after 48 hrs by sulforhodamine B assay; format: functional; conditions: read-out: GI
# LOX IMVI = assay: Growth inhibition of human LOXIMVI cells at 10 uM after 48 hrs by sulforhodamine B assay; format: functional; conditions: read-out: GI
# UACC-62 = assay: Growth inhibition of human UACC62 cells at 10 uM after 48 hrs by sulforhodamine B assay; format: functional; conditions: UACC-62, 48 h, read-out: GI
# KM12 = assay: Growth inhibition of human KM12 cells at 10 uM after 48 hrs by sulforhodamine B assay; format: functional; conditions: KM12, 48 h, read-out: GI
# MDA-MB-435 = assay: Growth inhibition of human MDA-MB-435 cells at 10 uM after 48 hrs by sulforhodamine B assay; format: functional; conditions: MDA-MB-435, 48 h, read-out: GI
# HCT-15 = assay: Growth inhibition of human HCT15 cells at 10 uM after 48 hrs by sulforhodamine B assay; format: functional; conditions: HCT-15, 48 h, read-out: GI
# HCT-116 = assay: Growth inhibition of human HCT116 cells at 10 uM after 48 hrs by sulforhodamine B assay; format: functional; conditions: HCT-116, 48 h, read-out: GI
# COLO 205 = assay: Growth inhibition of human COLO205 cells at 10 uM after 48 hrs by sulforhodamine B assay; format: functional; conditions: COLO 205, 48 h, read-out: GI
# NCI-H522 = assay: Growth inhibition of human NCI-H522 cells at 10 uM after 48 hrs by sulforhodamine B assay; format: functional; conditions: NCI-H522, 48 h, read-out: GI
# HOP-92 = assay: Growth inhibition of human HOP92 cells at 10 uM after 48 hrs by sulforhodamine B assay; format: functional; conditions: HOP-92, 48 h, read-out: GI
# HOP-62 = assay: Growth inhibition of human HOP62 cells at 10 uM after 48 hrs by sulforhodamine B assay; format: functional; conditions: HOP-62, 48 h, read-out: GI
# RPMI-8226 = assay: Growth inhibition of human RPMI8226 cells at 10 uM after 48 hrs by sulforhodamine B assay; format: functional; conditions: RPMI-8226, 48 h, read-out: GI
# MOLT-4 = assay: Growth inhibition of human MOLT4 cells at 10 uM after 48 hrs by sulforhodamine B assay; format: functional; conditions: MOLT-4, 48 h, read-out: GI
# HL-60(TB) = assay: Growth inhibition of human HL-60(TB) cells at 10 uM after 48 hrs by sulforhodamine B assay; format: functional; conditions: HL-60, 48 h, read-out: GI
# CCRF-CEM = assay: Growth inhibition of human CCRF-CEM cells at 10 uM after 48 hrs by sulforhodamine B assay; format: functional; conditions: read-out: GI
# K562 = assay: Growth inhibition of human K562 cells at 10 uM after 48 hrs by sulforhodamine B assay; format: functional; conditions: K562, 48 h, read-out: GI
Compound,inhibition (Ovis aries) [%],inhibition of growth at 10 µM (MDA-MB-468) [%],inhibition of growth at 10 µM (T47D) [%],inhibition of growth at 10 µM (MDA-MB-231) [%],inhibition of growth at 10 µM (MCF7) [%],inhibition of growth at 10 µM (SNB-75) [%],inhibition of growth at 10 µM (SF-295) [%],inhibition of growth at 10 µM (PC-3) [%],inhibition of growth at 10 µM (786-0) [%],inhibition of growth at 10 µM (UO-31) [%],inhibition of growth at 10 µM (CAKI-1) [%],inhibition of growth at 10 µM (RXF 393) [%],inhibition of growth at 10 µM [1] [%],inhibition of growth at 10 µM (OVCAR-4) [%],inhibition of growth at 10 µM (SK-MEL-5) [%],inhibition of growth at 10 µM (Malme-3M) [%],inhibition of growth at 10 µM (LOX IMVI) [%],inhibition of growth at 10 µM (UACC-62) [%],inhibition of growth at 10 µM (KM12) [%],inhibition of growth at 10 µM (MDA-MB-435) [%],other results
CCOC(=O)c1cc(C(=O)N2c3ccccc3Sc3ccccc32)n2ccc(N(C)C)cc12,42,19.7,14.7,7.2,18.5,30.1,22.8,50.7,0,0,23.2,33.3,29.4,9.5,23.2,22.7,20.2,27.7,26.4,74.5,inhibition of growth at 10 µM (A498): 4.4%; inhibition of growth at 10 µM (HCT-15): 18.3%; inhibition of growth at 10 µM (HCT-116): 12.1%; inhibition of growth at 10 µM (COLO 205): 0%; inhibition of growth at 10 µM (NCI-H522): 26.2%; inhibition of growth at 10 µM (HOP-92): 18.4%; inhibition of growth at 10 µM (HOP-62): 29.5%; inhibition of growth at 10 µM (RPMI-8226): 0%; inhibition of growth at 10 µM (MOLT-4): 15.3%; inhibition of growth at 10 µM (HL-60(TB)): 6.7%; inhibition of growth at 10 µM (CCRF-CEM): 27.1%
O=C(c1cnc2ccccn12)N1c2ccccc2Sc2ccccc21,38,7.3,19.2,7.4,4.6,0,16,45.1,5.3,0,5.9,0,12.8,0,14.6,2,12,39.3,14,6.7,inhibition of growth at 10 µM (HCT-15): 17.3%; inhibition of growth at 10 µM (HCT-116): 17.8%; inhibition of growth at 10 µM (COLO 205): 19.1%; inhibition of growth at 10 µM (NCI-H522): 6.6%; inhibition of growth at 10 µM (HOP-92): 33.8%; inhibition of growth at 10 µM (HOP-62): 3.4%; inhibition of growth at 10 µM (RPMI-8226): 36%; inhibition of growth at 10 µM (MOLT-4): 0%; inhibition of growth at 10 µM (K562): 2.3%; inhibition of growth at 10 µM (HL-60(TB)): 38.1%; inhibition of growth at 10 µM (CCRF-CEM): 3.1%
